ChEMBL document CHEMBL2176983, “Hispidin analogue davallialactone attenuates carbon tetrachloride-induced hepatotoxicity in mice” (J Nat Prod, 2012)
Active and inactive are the calls of the source. The rule behind the calls is not given here.

Experiments:
Assay type in all cases: functional, organism-based
[1] = test system: Mus musculus; test: Hepatoprotective activity in CCL4-induced FVB mouse assessed as effect on CYP2E1 expression at 2.5 to 10 mg/kg, sc administered for 3 consecutive days prior CCL4 challenge measured 12 to 24 hrs post challenge by Western blot method relative to control
[2] = test system: Mus musculus; test: Hepatoprotective activity in CCL4-induced FVB mouse assessed as decrease in cleaved caspase3-positive hepatocytes at 2.5 to 10 mg/kg, sc administered for 3 consecutive days prior CCL4 challenge measured 24 hrs post challenge by immunofluorescence staining method relative to control; conditions: Hepatocyte
[3] = test system: Mus musculus; test: Hepatoprotective activity in CCL4-induced FVB mouse assessed as decrease in liver macrophages at 2.5 to 10 mg/kg, sc administered for 3 consecutive days prior CCL4 challenge measured 24 hrs post challenge by immunofluorescence staining method relative to control
[4] = test system: Mus musculus; test: Hepatoprotective activity in CCL4-induced FVB mouse assessed as increase in HO-1 expression at 2.5 to 10 mg/kg, sc administered for 3 consecutive days prior CCL4 challenge measured 12 to 24 hrs post challenge by Western blot method relative to control
[5] = test system: Mus musculus; test: Hepatoprotective activity in CCL4-induced FVB mouse assessed as decrease in COX2 expression at 2.5 to 10 mg/kg, sc administered for 3 consecutive days prior CCL4 challenge measured 12 to 24 hrs post challenge by Western blot method relative to control
[6] = test system: Mus musculus; test: Hepatoprotective activity in CCL4-induced FVB mouse assessed as decrease in iNOS expression at 2.5 to 10 mg/kg, sc administered for 3 consecutive days prior CCL4 challenge measured 12 to 24 hrs post challenge by Western blot method relative to control
[7] = test system: Mus musculus; test: Hepatoprotective activity in CCL4-induced FVB mouse assessed as decrease in serum TNFalpha level at 2.5 to 10 mg/kg, sc administered for 3 consecutive days prior CCL4 challenge measured 12 to 24 hrs post challenge by ELISA relative to control
[8] = test system: Mus musculus; test: Hepatoprotective activity in CCL4-induced FVB mouse assessed as increase in CYP2E1 p-nitrophenol activity at 2.5 to 10 mg/kg, sc administered for 3 consecutive days prior CCL4 challenge measured 12 to 24 hrs post challenge relative to control
[9] = test system: Mus musculus; test: Hepatoprotective activity in CCL4-induced FVB mouse assessed as restoration of Cu/Zn SOD expression at 2.5 to 10 mg/kg, sc administered for 3 consecutive days prior CCL4 challenge measured 12 to 24 hrs post challenge by Western blot method relative to control
[10] = test system: Mus musculus; test: Hepatoprotective activity in CCL4-induced FVB mouse assessed as reduction in serum MDA level at 2.5 to 10 mg/kg, sc administered for 3 consecutive days prior CCL4 challenge measured 12 to 24 hrs post challenge relative to control
[11] = test system: Mus musculus; test: Hepatoprotective activity in CCL4-induced FVB mouse assessed as reduction in ROS level at 10 mg/kg, sc administered for 3 consecutive days prior CCL4 challenge measured 12 to 24 hrs post challenge by DHE-labeling method relative to control; design: dose 10 mg/kg
[12] = test system: Mus musculus; test: Hepatoprotective activity in sc dosed CCL4-induced FVB mouse assessed as reduction in liver necrosis at administered for 3 consecutive days prior CCL4 challenge measured 24 hrs post challenge by hematoxylin/eosin-staining method relative to control
[13] = test system: Mus musculus; test: Hepatoprotective activity in CCL4-induced FVB mouse assessed as reduction in liver necrosis at 10 mg/kg, sc administered for 3 consecutive days prior CCL4 challenge measured 12 hrs post challenge by hematoxylin/eosin-staining method relative to control; design: dose 10 mg/kg
[14] = test system: Mus musculus; test: Hepatoprotective activity in CCL4-induced FVB mouse assessed as reduction in liver necrosis at 2.5 to 10 mg/kg, sc administered for 3 consecutive days prior CCL4 challenge measured 12 to 24 hrs post challenge by hematoxylin/eosin-staining method relative to control
[15] = test system: Mus musculus; test: Hepatoprotective activity in FVB mouse assessed as reduction of CCL4-induced increase of serum AST level at 2.5 to 10 mg/kg, sc administered for 3 consecutive days prior CCL4 challenge measured 12 to 24 hrs post challenge
[16] = test system: Mus musculus; test: Hepatoprotective activity in FVB mouse assessed as reduction of CCL4-induced increase of serum ALT level at 2.5 to 10 mg/kg, sc administered for 3 consecutive days prior CCL4 challenge measured 12 to 24 hrs post challenge

SMILES: CC1=CC(=O)[C@H](c2c(O)cc(/C=C/c3ccc(O)c(O)c3)oc2=O)[C@@H](c2ccc(O)c(O)c2)O1
- Activity [1]: inactive
- Activity [2]: Active
- Activity [3]: Active
- Activity [4]: Active
- Activity [5]: Active
- Activity [6]: Active
- Activity [7]: Active
- Activity [8]: Active
- Activity [9]: Active
- Activity [10]: Active
- Activity [11]: Active
- Activity [12]: Dose-dependent effect
- Activity [13]: Active
- Activity [14]: Active
- Activity [15]: Active
- Activity [16]: Active
